Source: patent US9695155B2, “Herbicidal substituted pyrimidinyloxy benzene compounds” (E. I. DU PONT DE NEMOURS AND COMPANY, priority 2013, dated 2017)

Legend:
[1] = tested on: blackgrass; experiment: Test D postemergence; format: in vivo, Alopecurus myosuroides
Excerpt: Seeds of plant species selected from bluegrass (annual bluegrass, Poa annua), blackgrass (Alopecurus myosuroides), canarygrass (littleseed canarygrass, Phalaris minor), chickweed (common chickweed, Stellaria media), galium (catchweed bedstraw, Galium aparine), bromegrass, downy (downy bromegrass, Bromus tectorum), field poppy (Papaver rhoeas), field violet (Viola arvensis), green foxtail (Setaria viridis), deadnettle (henbit deadnettle, Lamium amplexicaule), Italian ryegrass (Lolium multiflorum), kochia (Kochia scoparia), lambsquarters (Chenopodium album), oilseed rape (Brassica napus), pigweed (Amaranthus retroflexus), chamomile (scentless chamomile, Matricaria inodora), Russian thistle (Salsola kali), speedwell (bird's-eye speedwell, Veronica persica), spring barley (Hordeum vulgare), spring wheat (Triticum aestivum), wild buckwheat (Polygonum convolvulus), wild mustard (Sinapis arvensis), wild oat (Avena fatua), wild radish (Raphanus raphanistrum), windgrass (Apera spica-venti), winter barley (Hordeum vulgare), and winter wheat (Triticum aestivum) were planted into a silt loam soil and treated preemergence with test chemicals formulated in a non-phytotoxic solvent mixture which included a surfactant.
At the same time, these species were planted in pots containing Redi-Earth® planting medium (Scotts Company, 14111 Scottslawn Road, Marysville, Ohio 43041) comprising spaghnum peat moss, vermiculite, wetting agent and starter nutrients and treated with postemergence applications of the test chemicals formulated in the same manner. Plants ranged in height from 2 to 18 cm (1- to 4-leaf stage). Treated plants and controls were maintained in a controlled growth environment for 7 to 21 days after which time all species were compared to controls and visually evaluated. Plant response ratings, summarized in Table D, are based on a scale of 0 to 100 where 0 is no effect and 100 is complete control. A dash (-) response means no test result.

[2] = tested on: yellow nutsedge; experiment: Test E preemergence; format: in vivo, Cyperus esculentus; conditions: for Nutsedge, Yellow plant response rating: scale 0 to 100 (0 no effect, 100 complete control); for Plant response rating, Nutsedge, Yellow: scale 0 to 100, 0 no effect, 100 complete control
Method in brief: (§1)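 Compound in a non-phytotoxic solvent mixture with surfactant was applied preemergence to seeds in silt loam soil, or postemergence to plants 2 to 18 cm tall grown in peat-based potting medium. Plants were kept in a greenhouse for 14 to 21 days, then rated visually against untreated controls on a 0 (no effect) to 100 (complete control) scale.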

[3] = tested on: Italian ryegrass; experiment: Test E preemergence; format: in vivo, Lolium multiflorum; conditions: for Ryegrass, Italian plant response rating: scale 0 to 100 (0 no effect, 100 complete control); for Plant response rating, Ryegrass, Italian: scale 0 to 100, 0 no effect, 100 complete control
Method in brief: as §1

[4] = tested on: large (Lg) crabgrass; experiment: Test E preemergence; format: in vivo, Digitaria sanguinalis; conditions: for Crabgrass, Large plant response rating: scale 0 to 100 (0 no effect, 100 complete control); for Plant response rating, Crabgrass, Large: scale 0 to 100, 0 no effect, 100 complete control
Method in brief: as §1

[5] = tested on: lambsquarters; experiment: Test E preemergence; format: in vivo, Chenopodium album; conditions: for Lambsquarters plant response rating: scale 0 to 100 (0 no effect, 100 complete control); for Plant response rating, Lambsquarters: scale 0 to 100, 0 no effect, 100 complete control
Method in brief: as §1

[6] = tested on: blackgrass; experiment: Test A postemergence; format: in vivo, Alopecurus myosuroides
Method in brief: (§2)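 Injury scores run from 0, no effect, to 100, complete control, judged by eye against untreated plants roughly 10 days after treatment. Chemicals carried a surfactant in a non-phytotoxic solvent and went onto loam–sand soil preemergence or onto one- to two-leaf seedlings postemergence.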

[7] = tested on: dayflower; experiment: Test E preemergence; format: in vivo, Commelina virginica; conditions: for Dayflower, VA plant response rating: scale 0 to 100 (0 no effect, 100 complete control); for Plant response rating, Dayflower, VA: scale 0 to 100, 0 no effect, 100 complete control
Excerpt: Seeds of plant species selected from corn (Zea mays), soybean (Glycine max), velvetleaf (Abutilon theophrasti), lambsquarters (Chenopodium album), wild poinsettia (Euphorbia heterophylla), palmer pigweed (Amaranthus palmeri), waterhemp (common waterhemp, Amaranthus rudis), surinam grass (Brachiaria decumbens), large (Lg) crabgrass (Digitaria sanguinalis), Brazilian crabgrass (Digitaria horizontalis), fall panicum (Panicum dichotomiflorum), giant foxtail (Setaria faberii), green foxtail (Setaria viridis), goosegrass (Eleusine indica), johnsongrass (Sorghum halepense), ragweed (common ragweed, Ambrosia elatior), barnyardgrass (Echinochloa crus-galli), sandbur (southern sandbur, Cenchrus echinatus), arrowleaf sida (Sida rhombifolia), Italian ryegrass (Lolium multiflorum), dayflower (Virginia (VA) dayflower, Commelina virginica), field bindweed (Convolvulus arvensis), morningglory (Ipomoea coccinea), nightshade (eastern black nightshade, Solanum ptycanthum), kochia (Kochia scoparia), yellow nutsedge (Cyperus esculentus), cocklebur (common cocklebur, Xanthium strumarium), smartweed (ladysthumb smartweed, and hairy beggarticks (Bidens pilosa), were planted into a silt loam soil and treated preemergence with test chemicals formulated in a non-phytotoxic solvent mixture which included a surfactant.
At the same time, plants from these crop and weed species and also horseweed (Canada horseweed, Conyza canadensis), waterhemp_RES1, (ALS & Triazine resistant common waterhemp, Amaranthus rudis), and waterhemp_RES2, (ALS & HPPD resistant common waterhemp, Amaranthus rudis) were planted in pots containing Redi-Earth® planting medium (Scotts Company, 14111 Scottslawn Road, Marysville, Ohio 43041) comprising spaghnum peat moss, vermiculite, wetting agent and starter nutrients were treated with postemergence applications of test chemicals formulated in the same manner. Plants ranged in height from 2 to 18 cm for postemergence treatments (1- to 4-leaf stage). Treated plants and controls were maintained in a greenhouse for 14 to 21 days, after which time all species were compared to controls and visually evaluated. Plant response ratings, summarized in Table E, are based on a scale of 0 to 100 where 0 is no effect and 100 is complete control. A dash (-) response means no test result.

[8] = tested on: kochia; experiment: Test A preemergence; format: in vivo, Kochia scoparia; conditions: for Plant response rating, Kochia: 0 to 100 scale where 0 is no effect and 100 is complete control; for Kochia plant response rating: 500 g ai/ha, 0 to 100 scale, 0 no effect, 100 complete control, approx. 10 days
Method in brief: as §2

[9] = tested on: kochia; experiment: Test A postemergence; format: in vivo, Kochia scoparia
Method in brief: as §2

[10] = tested on: ragweed; experiment: Test A preemergence; format: in vivo, Ambrosia elatior; conditions: for Plant response rating, Ragweed: 0 to 100 scale where 0 is no effect and 100 is complete control; for Ragweed plant response rating: 500 g ai/ha, 0 to 100 scale, 0 no effect, 100 complete control, approx. 10 days
Method in brief: as §2

[11] = 31 g ai/ha, 0 to 100 scale, 0 no effect, 100 complete control
[12] = 125 g ai/ha, 0 to 100 scale, 0 no effect, 100 complete control
[13] = 31 g ai/ha, visual, approximately 10 days
[14] = 125 g ai/ha, 0 to 100 scale where 0 is no effect and 100 is complete control
[15] = 500 g ai/ha, 0 to 100 scale where 0 is no effect and 100 is complete control

| SMILES | Nutsedge, Yellow plant response rating ([2]; 31 g ai/ha) | Nutsedge, Yellow plant response rating ([2]; 62 g ai/ha) | Plant response rating, Nutsedge, Yellow ([2]; 125 g ai/ha) | Ryegrass, Italian plant response rating ([3]; 31 g ai/ha) | Ryegrass, Italian plant response rating ([3]; 62 g ai/ha) | Plant response rating, Ryegrass, Italian ([3]; 125 g ai/ha) | Crabgrass, Large plant response rating ([4]; 16 g ai/ha) | Crabgrass, Large plant response rating ([4]; 31 g ai/ha) | Crabgrass, Large plant response rating ([4]; 62 g ai/ha) | Plant response rating, Crabgrass, Large ([4]; 125 g ai/ha) | Lambsquarters plant response rating ([5]; 31 g ai/ha) | Lambsquarters plant response rating ([5]; 62 g ai/ha) | Plant response rating, Lambsquarters ([5]; 125 g ai/ha) | Dayflower, VA plant response rating ([7]; 16 g ai/ha) | Dayflower, VA plant response rating ([7]; 31 g ai/ha) | Dayflower, VA plant response rating ([7]; 62 g ai/ha) | Plant response rating, Dayflower, VA ([7]; 125 g ai/ha) | Plant response rating, Blackgrass [6, 14] | Plant response rating, Blackgrass [6, 15] | Plant response rating, Kochia ([8]; 125 g ai/ha) | further results |
| --- | --- | --- | --- | --- | --- | --- | --- | --- | --- | --- | --- | --- | --- | --- | --- | --- | --- | --- | --- | --- | --- |
| Clc1cnc(Oc2ccccc2-n2cc(Cl)cn2)nc1 [Compound 3] | – | – | – | – | – | – | – | – | – | – | – | – | – | – | – | – | – | – | – | – | Plant response rating, Blackgrass ([1]; Postemergence, 62 g ai/ha, scale 0 to 100 (0 no effect, 100 complete control)): 0; Plant response rating, Blackgrass ([1]; Postemergence, 31 g ai/ha, scale 0 to 100 (0 no effect, 100 complete control)): 0; Plant response rating, Blackgrass ([1]; Postemergence, 125 g ai/ha, scale 0 to 100 (0 no effect, 100 complete control)): 0; Plant response rating, Blackgrass ([1]; Postemergence, 250 g ai/ha, scale 0 to 100 (0 no effect, 100 complete control)): 10; Plant response rating, Blackgrass ([1]; postemergence, 16 g ai/ha, scale 0 to 100, 0 no effect, 100 complete control): 70 |
| FCc1cccc(Oc2ncc(Cl)cn2)c1-n1cc(Cl)cn1 [Compound 250] | 0 | 0 | 40 | 0 | 0 | 0 | 0 | 0 | 0 | 100 | 0 | 0 | 100 | 0 | 0 | 50 | 70 | – | – | – | Plant response rating, Blackgrass [6, 11]: 70; Plant response rating, Blackgrass [6, 12]: 100; Plant response rating, Kochia [8, 13]: 90; Kochia plant response rating (0 to 100 scale) ([8]; 125 g ai/ha): 0; Plant response rating, Kochia [9, 11]: 60; Plant response rating, Kochia [9, 12]: 90 |
| N#Cc1cccc(Oc2ncc(F)cn2)c1-n1cc(I)cn1 [Compound 86] | 0 | 0 | 20 | 0 | 0 | 5 | 0 | 0 | 95 | 98 | 65 | 100 | 100 | 0 | 0 | 30 | 65 | 90 | 100 | 100 | Nutsedge, Yellow plant response rating ([2]; 16 g ai/ha): 0; Ryegrass, Italian plant response rating ([3]; 16 g ai/ha): 0; Lambsquarters plant response rating ([5]; 16 g ai/ha): 0; Plant response rating, Ragweed ([10]; 125 g ai/ha): 90; Ragweed plant response rating [10]: 100; Kochia plant response rating [8]: 100; Plant response rating, Kochia [9, 14]: 100; Plant response rating, Kochia [9, 15]: 100 |
| CCOc1cnn(-c2c(C#N)cccc2Oc2ncc(F)cn2)c1 [Compound 89] | 0 | 0 | 20 | 0 | 0 | 0 | – | 35 | 85 | 100 | 20 | 5 | 95 | – | 0 | 60 | 80 | 40 | 90 | 90 | Plant response rating, Nutsedge, Yellow ([2]; 250 g ai/ha): 35; Plant response rating, Ryegrass, Italian ([3]; 250 g ai/ha): 0; Plant response rating, Crabgrass, Large ([4]; 250 g ai/ha): 100; Plant response rating, Lambsquarters ([5]; 250 g ai/ha): 100; Plant response rating, Dayflower, VA ([7]; 250 g ai/ha): 98; Plant response rating, Ragweed ([10]; 125 g ai/ha): 50; Ragweed plant response rating [10]: 70; Kochia plant response rating [8]: 100; Plant response rating, Kochia [9, 14]: 80; Plant response rating, Kochia [9, 15]: 90 |
| N#Cc1cccc(Oc2ncc(Br)cn2)c1-n1cc(I)cn1 [Compound 88] | 0 | 0 | 0 | 0 | 0 | 0 | 0 | 35 | 65 | 95 | 50 | 100 | 100 | 0 | 0 | 0 | 60 | 70 | 100 | 100 | Nutsedge, Yellow plant response rating ([2]; 16 g ai/ha): 0; Ryegrass, Italian plant response rating ([3]; 16 g ai/ha): 0; Lambsquarters plant response rating ([5]; 16 g ai/ha): 75; Ragweed plant response rating [10]: 60; Kochia plant response rating [8]: 100; Plant response rating, Kochia [9, 14]: 80; Plant response rating, Kochia [9, 15]: 100 |
| N#Cc1cnn(-c2c(CF)cccc2Oc2ncc(F)cn2)c1 [Compound 151] | 0 | 0 | 0 | 10 | 10 | 65 | 0 | 5 | 60 | 100 | 100 | 100 | 100 | 0 | 10 | 65 | 85 | – | – | 90 | Plant response rating, Blackgrass [6, 11]: 20; Blackgrass plant response rating [6, 14]: 50; Plant response rating, Ragweed [10, 13]: 20; Plant response rating, Ragweed ([10]; 125 g ai/ha): 80; Plant response rating, Kochia [8, 13]: 80; Plant response rating, Kochia [9, 11]: 60; Kochia plant response rating [9, 14]: 90 |
